According to paper PMC12514245, “Impaired migration and lung invasion of human melanoma by a novel small molecule targeting the transmembrane domain of death receptor p75^NTR” (EMBO Molecular Medicine, 2025):
Several values for one entry are separate records, joined by “and”; a condition that tells them apart may be missing. Identical values can stand only once. Like-named read-outs stand apart in the source and are kept apart here.

Tests used:
A875 NT cells = test: Cell viability (Presto Blue), A875 NT; format: cell-based, human
Experimental: (§1) To measure the cytotoxic effect of Div17E5, A875 NT or shp75 cells were seeded at 2000 cells per well (in 100 μL DMEM) in a 96-well plate and incubated for 12 h. Next, Div17E5 at various concentrations was added and incubated at 37 °C in 5% CO2 for 2 days. Following treatment, 10 μL Presto Blue® (resazurin, ThermoFIsher) was added to each well of the 96-well plate and incubated for 2 h at 37 °C in 5% CO2. Cellular fluorescence in each well was measured at 535 nm excitation and 615 nm emission using a microtiter plate reader. Data was converted into the relative cell viability (%) from the fluorescence of cells in each treatment relative to that of the DMSO control group (set as 100%).

[1] = Cell viability (Presto Blue), A875 NT; format: cell-based, human; conditions: human, A875 NT cells, 2 days; for viability at 2 days, 1 uM: Div17E5 1 uM; for viability at 2 days, 1.5 uM: Div17E5 1.5 uM
Experimental: as §1

[2] = target: T1, Matrix-2 protein (M2) TMD (Influenza A virus, UniProt P06821); format: cell-based; conditions: for GFP/OD630, M2, mean: N=3
T1 construct: unrelated TMDs from α2β3 integrin and Matrix-2 protein (M2); expressed in transfected cells

[3] = tested on: A875-shp75 melanoma xenograft; test: Melanoma lung invasion assay, A875-shp75, treatment from one day before cell injection; format: in vivo, SCID mice
Experimental: Next, to assess the potential inhibitory effects of Np75-4A22 on melanoma cell migration and tissue invasion in vivo, we utilized the highly metastatic human A875 xenograft model. […] Initially, to mimic metastatic dissemination from the primary tumor site, A875-NT or A875-shp75 cells expressing GFP-Luc (for live-monitoring of tumor growth) were injected intravenously in female SCID mice 24 h following a single oral administration of Np75-A422 (200 mg/kg) or drug vehicle alone. Mice received 3 cycles of Np75-A422 (200 mg/kg/day) following a 5 day on and 2 days off drug schedule for a total of 3 weeks (Fig. 8A). Metastatic spread to the lungs was monitored weekly by luciferase activity using the Xenogen IVIS-200 Optical in vivo luciferase imaging system and mice were sacrificed after the third week. […] In addition, assessment of the metastatic spread was also quantified by histological assessment of non-consecutive lung sections stained for human nucleolin to detect the tumor cells. […] In addition, and as expected, high expression of p75^NTR was detected in lung tumors established by A875-NT cells but was negligible in tumors derived from A875-shp75 cells (Fig. EV10).
Eight-week-old female SCID mice (Charles River Laboratories, Shrewsbury, MA, USA) were housed in groups of three to five and maintained on a 12-h light/dark schedule with a temperature of 22 °C ± 1 °C and a relative humidity of 50% ± 5%. Food and water were available ad libitum. This research study was reviewed and approved by the University of Calgary Animal Care Committee (AC22-0054) and McGill University (AUP-JGH-8269) and adheres to established ethical principles and guidelines. A875-GFPLuc (A875-NT) or A875-GFPLuc shp75 (A875-shp75) cells harvested using Puck’s EDTA were resuspended in PBS and injected intravenously into SCID mice (5 × 10^5 cells/200 μl per mouse). Np75-4A22 was dissolved in 0.5% sodium carboxymethyl cellulose (NaCMC) in reverse osmosis H2O and administered by oral gavage at 200 mg/kg/day starting one day prior to intravenous (tail vein) injection of tumor cells and continued for 3 1-week cycles (cycle: 5 days on drug, 2 days off drug). Tumor spread to the lung was monitored weekly by luciferase activity using the Xenogen IVIS-200 Optical in vivo luciferase imaging system as described previously (Lun et al, [2016]) and by immunohistochemistry (IHC) at designated time points. IHC was performed after formalin fixation, paraffin embedding and sectioning of the lungs, using a human-specific mouse polyclonal nucleolin antibody (1:500 dilution) and detected using Dako liquid DAB+ Substrate Chromogen System (Dako: k3468, California, USA) followed by a hematoxylin counterstain (Sigma, Oakville, ON, Canada). Sections were mounted and imaged on an Olympus phase contrast microscope (Olympus Life Science, Tokyo, Japan). For immunofluorescence, sections were stained with anti-human nucleolin and anti-human p75NTR antibodies (1:1000 dilution), subsequently detected with 1:200 dilutions of Alexa Fluor™ 488 Goat anti-Mouse IgG (H + L) Highly Cross-Adsorbed Secondary Antibody and Alexa Fluor™ 568 Goat anti-Rabbit IgG (H + L) Cross-Adsorbed Secondary Antibody. Sections were further stained with DAPI to detect all nuclei. Between each treatment, TBS Automation Wash Buffer (Biocare Medical TWB945M) was employed. Images were taken with LSM800 confocal microscope and ZEN system.

[4] = format: in vivo; conditions: oral 200 mg/kg/day
[5] = N=3, read-out: Cell Viability, Mean
[6] = read-out: Cell Viability, n1-n3

T1 sequence (P06821 23-43 limits assumed): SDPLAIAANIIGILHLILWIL

Oc1ccc(-c2cncc(Nc3ccc(Br)c(Cl)c3)n2)cc1 [Div17E5]
Cell Viability, n1-n3 (A875 NT cells; Div17E5 0.5 uM, 2 days): 76%
Cell Viability, n1-n3 (A875 NT cells; Div17E5 1 uM, 2 days): 69% and 80%
Cell Viability, n1-n3 (A875 NT cells; Div17E5 1.5 uM, 2 days): 66%
Cell Viability, n1-n3 (A875 NT cells; Div17E5 2.5 uM, 2 days): 61% and 52%
Cell Viability, n1-n3 (A875 NT cells; Div17E5 5 uM, 2 days): 51% and 57%
Cell Viability, n1-n3 (A875 NT cells; Div17E5 7.5 uM, 2 days): 44% and 51%
Cell Viability, n1-n3 (A875 NT cells; Div17E5 10 uM, 2 days): 39% and 42%
viability at 0.5 µM (A875 NT cells; Homo sapiens, A875, 48 h, Div17E5 0.5 uM, 2 days, read-out: Cell Viability, n1-n3): 85%
viability at 2 µM (A875 NT cells; Homo sapiens, A875, 48 h, Div17E5 2 uM, 2 days, read-out: Cell Viability, n1-n3): 67%
viability at 2.5 µM (A875 NT cells; Homo sapiens, A875, 48 h, Div17E5 2.5 uM, 2 days, N=3, read-out: Cell Viability, Mean): 59%
viability at 2.5 µM (A875 NT cells; Homo sapiens, A875, 48 h, Div17E5 2.5 uM, 2 days, read-out: Cell Viability, n1-n3): 65%
viability at 5 µM (A875 NT cells; Homo sapiens, A875, 48 h, Div17E5 5 uM, 2 days, N=3, read-out: Cell Viability, Mean): 55%
viability at 5 µM (A875 NT cells; Homo sapiens, A875, 48 h, Div17E5 5 uM, 2 days, read-out: Cell Viability, n1-n3): 58%
viability at 7.5 µM (A875 NT cells; Homo sapiens, A875, 48 h, Div17E5 7.5 uM, 2 days, N=3, read-out: Cell Viability, Mean): 50%
viability at 7.5 µM (A875 NT cells; Homo sapiens, A875, 48 h, Div17E5 7.5 uM, 2 days, read-out: Cell Viability, n1-n3): 55%
viability at 10 µM (A875 NT cells; Homo sapiens, A875, 48 h, Div17E5 10 uM, 2 days, read-out: Cell Viability, n1-n3): 49%
cell viability (A875 NT cells; above 10 μM): sensitive
cell viability (A875 NT cells; dose-dependent): decreased viability
viability at 2 days, 0.5 uM ([1]; Div17E5 0.5 uM, N=3): 79%
viability at 2 days, 1 uM [1, 5]: 75%
viability at 2 days, 1 uM [1, 6]: 77%
viability at 2 days, 1.5 uM [1, 5]: 65%
viability at 2 days, 1.5 uM [1, 6]: 71%
GFP/OD630, M2, single replicates ([2]; Div17E5 1 μM): 96 and 90 and 113
GFP/OD630, M2, mean ([2]; Div17E5 1 μM): 100
GFP/OD630, M2, single replicates ([2]; Div17E5 2.5 μM): 94 (2×) and 111
GFP/OD630, M2, mean ([2]; Div17E5 2.5 μM): 100
GFP/OD630, M2, single replicates ([2]; Div17E5 5 μM): 89 and 109 and 92
GFP/OD630, M2, mean ([2]; Div17E5 5 μM): 97
GFP/OD630, M2, single replicates ([2]; Div17E5 10 μM): 90 and 105 and 99
GFP/OD630, M2, mean ([2]; Div17E5 10 μM): 98
GFP/OD630, M2, single replicates ([2]; Div17E5 20 μM): 109 and 89 and 98
GFP/OD630, M2, mean ([2]; Div17E5 20 μM): 99
GFP/OD630, M2, single replicates ([2]; Div17E5 50 μM): 112 and 92 and 109
GFP/OD630, M2, mean ([2]; Div17E5 50 μM): 104

Cc1cccc(-c2cncc(Nc3ccc(Br)c(Cl)c3Cl)n2)c1C [Np75-4A22]
Metastatic Nodules/Lung Section, Average ([3]; A875-shp75, average of 5 non-consecutive slides per individual mouse): 1.2 and 0.8 and 0.4 and 0.2 and 1.8 and 0.6 and 10.6
Cancer Cells/Lung Section, Average per mouse ([3]; A875-shp75, average of 5 slides of one mouse): 7 and 6 and 2.8 and 3.2 and 3.6 and 25.6 and 1.6 and 13 and 132.2
Cancer Cells/Lung Section, group Average ([3]; A875-shp75, average of all mice): 21.6667
Metastatic Nodules/Lung Section, group Average ([3]; A875-shp75, average over all mice of the group): 1.8
Metastatic Nodules/Lung Section, Slide 1 ([3]; A875-shp75, individual mouse, slide 1 of 5 non-consecutive slides/mouse): 2 and 1 and 0 and 6
Metastatic Nodules/Lung Section, Slide 2 ([3]; A875-shp75, individual mouse, slide 2 of 5 non-consecutive slides/mouse): 2 and 0 and 1 and 3 and 14
Metastatic Nodules/Lung Section, Slide 3 ([3]; A875-shp75, individual mouse, slide 3 of 5 non-consecutive slides/mouse): 1 and 0 and 2 and 18
Metastatic Nodules/Lung Section, Slide 4 ([3]; A875-shp75, individual mouse, slide 4 of 5 non-consecutive slides/mouse): 1 and 0 and 2 and 12
Metastatic Nodules/Lung Section, Slide 5 ([3]; A875-shp75, individual mouse, slide 5 of 5 non-consecutive slides/mouse): 0 and 1 and 3
p75NTR-negative lung tumors ([3]; oral 200 mg/kg/day, 3 weeks): not significantly affected
mortality, repeated dose ([4]; 21 consecutive days, females and males): No mortality
treatment-related effects, repeated dose, females ([4]; 21 days, females): mild decrease in lymphocyte cellularity and increase granulopoiesis
treatment-related effects, repeated dose, males ([4]; 21 days, males): no treatment-related effects
